Reference: US8263139B2 (Metaproteonics, LLC, priority 2005, dated 2012)
Marks after values point to notes of the source that are not given here.

What was measured:
[1] = Collagen induced rheumatoid arthritis murine model, arthritic index; type: in vivo, mouse; details: 10 mg/kg
Description: The mice were injected intradermally on day 0 with a mixture containing 100 μg of type II collagen and 100 μg of Mycobacterium tuberculosis in squalene. A booster injection was repeated on day 21. Mice were examined on days 22-27 for arthritic signs with nonresponding mice removed from the study.
Arthritic symptomology was assessed (scored 0-4) for each paw using a arthritic index as described below. Under this arthritic index 0=no visible signs; 1=edema and/or erythema: single digit; 2=edema and or erythema: two joints; 3=edema and or erythema: more than two joints; and 4=severe arthritis of the entire paw and digits associated with ankylosis and deformity.

3T3-L1 adipocytes [2] = experiment: Adiponectin secretion from TNFα-treated 3T3-L1 adipocytes; type: cell-based, murine; details: for Concentration eliciting maximum adiponectin secretion: of the doses tested
Description: 3T3-L1 cells were seeded at an initial density of 1×10^4 cells/cm^2 in 96-well plates. For two days, the cells were allowed grow to reach confluence. Following confluence, the cells were forced to differentiate into adipocytes by the addition of differentiation medium; this medium consisted of (1) 10% FBS/DMEM (high glucose); (2) 0.5 mM methylisobutylxanthine; (3) 0.5 μM dexamethasone and (4) 10 μg/ml insulin (MDI medium). From Day 3 through Day 5, the medium was changed to post-differentiation medium consisting of 10% FBS in DMEM. […] On Day 6, the supernatant medium was sampled for adiponectin determination.
Statistical Calculations and Interpretation—All assays were preformed in duplicate. […] Differences among the doses and test agents were determined using the Student's t-test without correction for multiple comparisons; the nominal five percent probability of a type I error was selected.

3T3-L1 adipocytes [3] = experiment: IL-6 secretion in LPS/3T3-L1 adipocytes; type: cell-based, murine; details: at the concentration of maximum inhibition, with 100 ng LPS/ml
3T3-L1 adipocytes [4] = experiment: Adiponectin secretion in LPS/3T3-L1 adipocytes; type: cell-based, murine; details: at the concentration of maximum stimulation; NS = not significantly different from the LPS control
3T3-L1 adipocytes [5] = experiment: Lipogenesis in 3T3-L1 adipocytes (Oil Red O / BODIPY); type: cell-based, murine
Description: Prior to experiments, cells were cultured in DMEM containing 10% FBS-HI added 50 units penicillin/ml and 50 μg streptomycin/ml, and maintained in log phase prior to experimental setup. Cells were grown in a 5% CO2 humidified incubator at 37° C. Components of the pre-confluent medium included (1) 10% FBS/DMEM containing 4.5 g glucose/L; (2) 50 U/ml penicillin; and (3) 50 μg/ml streptomycin. Growth medium was made by adding 50 ml of heat inactivated FBS and 5 ml of penicillin/streptomycin to 500 ml DMEM. This medium was stored at 4° C. Before use, the medium was warmed to 37° C. in a water bath.
3T3-T1 cells were seeded at an initial density of 6×10^4 cells/cm^2 in 24-well plates. For two days, the cells were allowed grow to reach confluence. Following confluence, the cells were forced to differentiate into adipocytes by the addition of differentiation medium; this medium consisted of (1) 10% FBS/DMEM (high glucose); (2) 0.5 mM methylisobutylxanthine; (3) 0.5 μM dexamethasone and (4) 10 μg/ml insulin (MDI medium). After three days, the medium was changed to post-differentiation medium consisting of 10 μg/ml insulin in 10% FBS/DMEM.
Whenever fresh media were added, fresh test material was also added.
Monolayer cells were washed with PBS (phosphate buffered saline, Mediatech) and fixed with 10% formaldehyde for ten minutes. Fixed cells were stained with an Oil Red O working solution of three parts 0.6% Oil Red O/isopropanol stock solution and two parts water for one hour and the excess stain was washed once with water. The resulting stained oil droplets were extracted from the cells with isopropanol and quantified by spectrophotometric analysis at 540 nm (MEL312e BIO-KINETICS READER, Bio-Tek Instruments, Winooski, Vt.).
Briefly, media were removed and cells were washed once with non-sterile PBS. […] After 15 min on an orbital shaker (DS-500, VWR Scientific Products, South Plainfield, N.J.) at ambient temperature, the cells were washed with 100 μl PBS followed by the addition of 100 μl PBS for reading for spectrofluorometric determination of BODIPY incorporation into the cells. […]

## C[C@]12C=CC(=O)C=C1CC[C@@H]1[C@@H]2[C@@H](O)C[C@@]2(C)[C@H]1CC[C@]2(O)C(=O)CO [prednisolone]
[1]
  arthritic index: Significant reductions

## CCc1ccc(CCOc2ccc(CC3SC(=O)NC3=O)cc2)nc1 (centres unmarked) [pioglitazone]
3T3-L1 adipocytes [2]; 10 ng TNFα/ml
  maximal adiponectin secretion, times the TNFα treatment: 1.47
3T3-L1 adipocytes [2]; 10 ng TNFα/ml, Acacia catechu #5669 fractions
  Concentration eliciting maximum adiponectin secretion over four doses: 1.25 µg/mL

## COc1ccc2c(c1)c(CC(=O)O)c(C)n2C(=O)c1ccc(Cl)cc1 [indomethacin]
3T3-L1 adipocytes [3]
  % Inhibition (maximum inhibition of IL-6 secretion): 53* %
3T3-L1 adipocytes [4]
  % Stimulation (maximum stimulation of adiponectin secretion): 9%
3T3-L1 adipocytes [2]; 2 ng TNFα/ml
  Concentration eliciting maximum adiponectin secretion: 1.25 µg/mL
3T3-L1 adipocytes [2]; 10 ng TNFα/ml
  Concentration eliciting maximum adiponectin secretion: 5.0 µg/mL

## Beta acids
3T3-L1 adipocytes [5]
  adipogenic / lipogenic response compared with controls: comparable to indomethacin and troglitazone

## CC(C)CCC1=C(O)C(C(=O)C(C)C)=C(O)C(CCC(C)C)(CCC(C)C)C1=O [hexahydrocolupulone]
3T3-L1 adipocytes [5]
  adipogenic / lipogenic response compared with controls: failed to elicit a lipogenic response

## COc1cc(O)c(CC=C(C)C)c(O)c1C(=O)/C=C/c1ccc(O)cc1 [xanthohumol]
3T3-L1 adipocytes [5]
  adipogenic / lipogenic response compared with controls: comparable to indomethacin and troglitazone

## Cc1c(C)c2c(c(C)c1O)CCC(C)(COc1ccc(CC3SC(=O)NC3=O)cc1)O2 (centres unmarked) [troglitazone]
3T3-L1 adipocytes [2]; 10 ng TNFα/ml
  Concentration eliciting maximum adiponectin secretion: 0.625 µg/mL
